pIC50: −log10 of the molar value. Values joined by “and” are separate entries in the source; they are usually repeats but may differ in a detail not shown here. Equal entries are not always repeated. Structures can show the parent of a compound that is named as a salt. Where two headings read alike, the source gives them in different places.
Key:
[1] = tested on: colonic mucosa; set-up: method as in PMID 32014250; conditions: cited from earlier work
[2] = biological target: SMCT1; conditions: inhibition of uptake of SMCT1 substrate nicotinate, mouse colon cell lines; cited from earlier work
[3] = tested on: [^3H]VPA uptake in MT (hSOD1^G93A) NSC-34 cell line; conditions: for [^3H]VPA uptake (% of control): 10 s, 37 °C
[4] = tested on: [^3H]VPA uptake in WT (hSOD1^WT) NSC-34 cell line; experiment: Inhibition of [3H]VPA uptake by substrates/inhibitors/drugs, WT cell line; assay type: cell-based; conditions: for [^3H]VPA uptake (% of control): 10 s, 37 °C
[5] = tested on: [^3H]VPA uptake in MT (hSOD1^G93A) NSC-34 cell line; experiment: cells
[6] = tested on: FRTL-5 cells; conditions: inhibition of GHB uptake by FRTL-5 cells; cited from earlier work
[7] = tested on: NSC-34 wild-type (NSC-34/hSOD1^WT) cell line; experiment: [3H]VPA cellular uptake and kinetic parameters, WT cell line; assay type: in vitro ADME
Text: (§1) To maintain the sodium-free environment in the ECF buffer, NaCl and NaHCO3 was replaced with […] and N-methyl-D-glucamine (NMG), respectively. […] Similarly, to observe the effect of pH, the ECF buffer was adjusted to pH 6.0-7.4 using HCl or NaOH following a previously described experimental procedure. […] For the Eadie-Hofstee plot, the saturable components were plotted by subtracting the non-saturable uptake from the total uptake rate.

[8] = in the body; cited from earlier work
[9] = tested on: NSC-34 mutant-type (NSC34/hSOD1^G93A) cell line; experiment: [3H]VPA cellular uptake and kinetic parameters, MT ALS cell line; assay type: in vitro ADME
Text: as §1

[10] = tested on: NSC-34 WT cell line; experiment: Cell viability (MTT) assay, glutamate- and H2O2-induced neurotoxicity, WT; conditions: 24 h
Method: (§2) Then, an MTT [3‐(4,5‐[…]‐2‐yl)‐2,5‐diphenyltetrazoliumbromide] solution (5 mg/mL) was added and the cells were stored in the dark at 37 °C until the appearance of a purple precipitate (formazan). Then, DMSO was added and the cells were left for 15 min; afterwards, the absorbance was measured using an Infinite F200 PRO microplate reader (Tecan Trading AG, Männedorf, Switzerland) at […]. Images were captured using an EVOS XL Core Cell Imaging System (Life technologies, Thermo Fisher Scientific Korea Co., Ltd.).

[11] = tested on: NSC-34 MT cell line; experiment: Cell viability (MTT) assay, glutamate- and H2O2-induced neurotoxicity, MT; conditions: 24 h
Method: as §2

[12] = NSC-34, pH 7.4, read-out: IC50 for [^3H]VPA uptake
[13] = NSC-34, pH 6, read-out: IC50 for [^3H]VPA uptake
[14] = 5–30 s, pH 6.0–7.4, sodium-free (NMG) buffer
[15] = high-affinity site, unlabeled VPA 0–10 mM, 10 s, pH 7.4, 37 °C
[16] = low-affinity site, 10 s, pH 7.4
[17] = VPA 2 mM added to glutamate (2 mM) and H2O2 (300 µM)

Structure (SMILES) | [^3H]VPA uptake (% of control) ([3]; compound 1 mM, pH 6.0) | [^3H]VPA uptake (% of control) ([3]; compound 10 mM, pH 6.0) | [^3H]VPA uptake (% of control) ([4]; compound 1 mM, pH 6.0) | [^3H]VPA uptake (% of control) ([4]; compound 10 mM, pH 6.0) | further results
Nc1ccc(O)c(C(=O)O)c1 [5-aminosalicylic acid] |  |  |  |  | Km [1]: 2400 µM; Ki/IC50 [2]: 2.8 mM
CC(=O)O [Acetic acid, acetic acid] | 40.3 ± 5.0 % of control | 15.4 ± 1.4 % of control | 54.9 ± 6.7 % of control | 24.4 ± 3.0 % of control | 
N#CC(=Cc1ccc(O)cc1)C(=O)O [CHC, α-cyano-4-hydroxycinnamate] |  | 74.6 ± 7.1 % of control |  | 67.7 ± 9.0 % of control | 
O=C(O)CC(O)(CC(=O)O)C(=O)O [Citric acid, citric acid] |  | 125 ± 13 % of control |  | 113 ± 3 % of control | 
O=S(=O)(O)c1cc(N=C=S)ccc1C=Cc1ccc(N=C=S)cc1S(=O)(=O)O [DIDS, 4,4′-diisothiocyano-2,2′-stilbenedisulfonic acid] | 58.8 ± 4.9 % of control |  | 54.8 ± 4.3 % of control |  | depletion in VPA transport ([3]; 1 mM): approximately 40%; depletion in VPA transport ([4]; 1 mM): approximately 40%
CC1=NN(c2ccccc2)C(=O)C1 [Edaravone, edaravone] | 81.0 ± 5.4 % of control | 68.6 ± 6.3 % of control | 80.3 ± 6.0 % of control | 67.3 ± 7.6 % of control | pIC50 [5, 12]: 1.54
C[C@]12CC[C@@H]3c4ccc(OS(=O)(=O)O)cc4CC[C@H]3[C@@H]1CCC2=O [Estrone − 3 sulfate, estrone 3-sulfate] |  | 58.2 ± 8.5 % of control |  | 60.6 ± 8.4 % of control | 
NS(=O)(=O)c1cc(C(=O)O)c(NCc2ccco2)cc1Cl [Furosemide, furosemide] | 61.7 ± 2.2 % of control |  | 61.7 ± 6.3 % of control |  | [^3H]VPA uptake (% of control) ([3]; compound 5 mM, acidic pH): 82.3 ± 7.5 % of control; [^3H]VPA uptake (% of control) ([4]; compound 5 mM, acidic pH): 77.5 ± 4.9 % of control
CC(C)Cc1ccc(C(C)C(=O)O)cc1 (centres unmarked) [Ibuprofen] | 61.9 ± 7.5 % of control | 33.5 ± 1.0 % of control | 64.3 ± 3.6 % of control | 22.3 ± 1.5 % of control | IC50 [6]: in the micromolar range; pIC50 [5, 13]: 2.18; pIC50 [5, 12]: 1.44
C[C@H](O)C(=O)O [L-lactate] |  |  |  |  | IC50 [6]: in the micromolar range
Nc1ccc(C(=O)NCC(=O)O)cc1 [PAH, para-aminohippuric acid] | 58.7 ± 2.9 % of control | 63.5 ± 5.5 % of control | 71.0 ± 5.5 % of control | 75.8 ± 2.3 % of control | 
O=C(O)CCCc1ccccc1 [PBA, 4-phenylbutyric acid] |  | 56.6 ± 3.0 % of control |  | 43.1 ± 2.2 % of control | 
O=C(O)c1ccccc1O [Salicylic acid] | 78.8 ± 8.6 % of control | 31.9 ± 1.6 % of control | 64.9 ± 2.0 % of control | 17.9 ± 1.5 % of control | pIC50 [5, 13]: 2.13
CCCC(CCC)C(=O)O [VPA, Valproic acid] | 78.4 ± 1.6 % of control | 37.4 ± 4.2 % of control | 78.3 ± 4.5 % of control | 35.9 ± 5.2 % of control | dependence of [^3H]VPA uptake [7, 14]: time, pH, and sodium dependent; Vmax1 ([7]; high-affinity site, pH 7.4): 0.0083 ± 0.0044 nmol/mg protein/10 s; Km1 [7, 15]: 37.8 ± 3.0 µM; Km2 [7, 16]: 4.59 ± 0.62 mM and 4.588 ± 0.620 mM; Vmax2 ([7]; low-affinity site, pH 7.4): 1.86 ± 0.24 nmol/mg protein/10 s and 1.864 ± 0.244 nmol/mg protein/10 s; half-life [8]: 9 to 16 h; dependence of [^3H]VPA uptake [9, 14]: time, pH, and sodium dependent; Vmax1 ([9]; high-affinity site, pH 7.4): 0.0232 ± 0.0007 nmol/mg protein/10 s; Km1 [9, 15]: 19.1 ± 0.7 µM; Km2 [9, 16]: 1.14 ± 0.14 mM and 1.144 ± 0.143 mM; Vmax2 ([9]; low-affinity site, pH 7.4): 0.231 ± 0.015 nmol/mg protein/10 s; neuroprotective effect on cell viability (MTT) [10, 17]: restored the viability; neuroprotective effect on cell viability (MTT) [11, 17]: restored the viability
N[C@@H](CCC(=O)O)C(=O)O [glutamate] |  |  |  |  | effect of neurotoxic stimulus on cell viability (MTT) ([10]; glutamate 2 mM or H2O2 300 µM): significantly decreased the viability; effect of neurotoxic stimulus on cell viability (MTT) ([11]; glutamate 2 mM or H2O2 300 µM): significantly decreased the viability
CC(C(=O)O)c1cccc(C(=O)c2ccccc2)c1 (centres unmarked) [ketoprofen] |  |  |  |  | IC50 [6]: in the micromolar range
CCCN(CCC)S(=O)(=O)c1ccc(C(=O)O)cc1 [probenecid] |  |  |  |  | IC50 [6]: in the micromolar range

— article PMC8744235 (Journal of Biomedical Science, 2022)
